How the values were obtained:
[1] = tested on: pancreatic exocrine function; assay: 13C-dipeptide breath test in normal rats (Δ13C in exhaled CO2 after oral administration); assay type: in vivo, rat; conditions: for Δ^13C(‰) peak value / Peak time: oral 35 μmol/kg (5 ml/kg); for Δ^13C(‰) peak value: exhaled CO2; for Δ^13C(‰) peak value compared with the peak value of Bz-Ala-(^13C-Ala)-ONa: oral 35 μmol/kg, comparison in words
Protocol: (§1) Overnight-fasted rats (male, Wistar, 8-week old) in the awake state were individually fixed in a rat holder of a microwave irradiation apparatus. The breath was collected at a rate of about 100 to 300 ml/min using a stroke pump (Variable Stroke Pump VS-500; Shibata Kagaku Kogyo), and the CO2 concentration therein was maintained at about 3%. A Perma Pure drier (MD-050-12P; Perma Pure INC.) was set between the rat holder and the stroke pump to remove water vapor from the breath. When the CO2 concentration was stabilized, the rat was temporarily released from the rat holder. A ^13C-labeled dipeptide or a sodium salt thereof each dissolved in distilled water was administered to the stomach of the rat using an oral probe [dose: 35 μmol/kg (5 ml/kg)]. The breath was sampled with a syringe every 5 min until up to 20 min. A 15 ml sample was transferred from the syringe into a vacuum vial (10 ml), sealed and subjected to automated analysis by GC-MS (Breath MAT) [FinniganMAT]. Δ^13C(‰) was calculated from δ^13C values which are ^13C values of a sample (i.e. differences from the standard substance PDB) using the following formula. Δ^13C(‰)=(δ^13C)tmin−((δ^13C)0 min <Breath MAT Measuring Conditions>
Apparatus: Breath MAT plus (Finningan)
Using Ac-Met-(^13C-Ala)-ONa, Z-Met-(^13C-Ala)-ONa, Boc-Met-(^13C-Ala)-ONa or Boc-Phe-(^13C-Ala)-ONa [dose: 35 μmol/kg (5 ml/kg)], ^13C-breath tests were carried out in the same manner as in Example 12. The resultant Δ^13C(‰) peak values were compared with the Δ^13C(‰) peak value in the Bz-Ala-(^13C-Ala)-ONa breath test.
(§2) As in Example 12, Bz-Phe-(^13C-Ala)-ONa [dose: 12.6 mg/kg (35 μmol/kg)], Bz-Gln-(^13C-Ala)-ONa [dose: 12.0 mg/kg (35 μmol/kg)], Bz-Val-(^13C-Ala)-ONa [dose: 11.0 mg/kg (35 μmol/kg)], Bz-Tyr-(^13C-Ala)-ONa [dose: 13.2 mg/kg (35 μmol/kg)], Bz-Met-(^13C-Ala)-ONa [dose: 12.1 mg/kg (35 μmol/kg)], Bz-Ser-(^13C-Ala)-ONa [dose: 10.6 mg/kg (35 μmol/kg)], Bz-Thr-(^13C-Ala)-ONa [dose: 11.0 mg/kg (35 μmol/kg)] or Boc-Phe-(^13C-Ala)-ONa [dose: 8.84 mg/kg (24.6 μmol/kg)] was administered orally to normal rats and chronic pancreatitis rats. Then, the time course of the degree of increase of the ^13C concentration in exhaled CO2 (Δ^13C(‰)) was measured.

[2] = tested on: pancreatic exocrine function; assay: 13C-dipeptide breath test in chronic pancreatitis rats (oleic acid injected into pancreatic duct); assay type: in vivo, rat; conditions: oral 8.84 mg/kg (24.6 μmol/kg), mean±SD
Protocol: as §1
Chronic pancreatitis rats were created according to the method of Mundlos et al., Pancreas 1:29 (1986). Oleic acid was injected into the pancreatic duct of 5-week old Wistar male rats. After breeding for 3 weeks, they were used in ^13C-dipeptide breath tests.
as §2

[3] = Table 1, overnight-fasted Wistar rats
[4] = Table 1, overnight-fasted Wistar rats, peak in time course of Δ13C(‰) up to 20 min

Δ^13C(‰) peak value [1, 3]	Peak time [1, 4]	Peak time ([1]; Table 2, rats)	Δ^13C(‰) peak value ([1]; Table 2, rats)	Δ^13C(‰) peak value compared with the peak value of Bz-Ala-(^13C-Ala)-ONa ([1]; rats)	Compound	other results
42.83 ‰	15 min				C[C@H](NC(=O)[C@H](CCCNC(=N)N)NC(=O)c1ccccc1)[13C](=O)O [Bz-Arg-(^13C-Ala), reference compound]	
38.57 ‰	15 min				C[C@H](NC(=O)[C@H](CCCCN)NC(=O)c1ccccc1)[13C](=O)O [Bz-Lys-(^13C-Ala), reference compound]	
		15 min	63.15 ‰	higher	CSCC[C@H](NC(C)=O)C(=O)N[C@@H](C)[13C](=O)[O-].[Na+] [Na salt of Ac-Met-(^13C-Ala), acetyl-L-methionyl-^13C-L-alanine]	
		15 min	55.50 ‰	higher	CSCC[C@H](NC(=O)OC(C)(C)C)C(=O)N[C@@H](C)[13C](=O)[O-].[Na+] [Na salt of Boc-Met-(^13C-Ala), t-butyloxycarbonyl-L-methionyl-^13C-L-alanine]	
		20 min	46.06 ‰	higher	C[C@H](NC(=O)[C@H](Cc1ccccc1)NC(=O)OC(C)(C)C)[13C](=O)[O-].[Na+] [Na salt of Boc-Phe-(^13C-Ala), t-butyloxycarbonyl-L-phenylalanyl-^13C-L-alanine]	Δ^13C(‰) value at 5 min after the administration ([2]; 5 min): 0.74±0.54 ‰; Δ^13C(‰) value at 10 min after the administration ([2]; 10 min): 3.43±1.46 ‰; Δ^13C(‰) value at 15 min after the administration ([2]; 15 min): 6.36±2.67 ‰; Δ^13C(‰) value at 20 min after the administration ([2]; 20 min): 10.16±3.95 ‰; Δ^13C(‰) value at 5 min after the administration ([1]; normal rats, oral 8.84 mg/kg (24.6 μmol/kg), 5 min, mean±SD): 5.02±3.79 ‰; Δ^13C(‰) value at 10 min after the administration ([1]; normal rats, oral 8.84 mg/kg (24.6 μmol/kg), 10 min, mean±SD): 24.36±7.52 ‰; Δ^13C(‰) value at 15 min after the administration ([1]; normal rats, oral 8.84 mg/kg (24.6 μmol/kg), 15 min, mean±SD): 28.13±4.43 ‰; Δ^13C(‰) value at 20 min after the administration ([1]; normal rats, oral 8.84 mg/kg (24.6 μmol/kg), 20 min, mean±SD): 25.09±2.00 ‰
45.88 ‰	10 min	10 min	45.88 ‰		C[C@H](NC(=O)c1ccccc1)C(=O)N[C@@H](C)[13C](=O)[O-].[Na+] [Na salt of Bz-Ala-(^13C-Ala), reference compound]	
41.74 ‰	15 min				C[C@H](NC(=O)[C@H](CC(N)=O)NC(=O)c1ccccc1)[13C](=O)[O-].[Na+] [Na salt of Bz-Asn-(^13C-Ala), reference compound]	
11.47 ‰	20 min				C[C@H](NC(=O)[C@H](CC(=O)O)NC(=O)c1ccccc1)[13C](=O)[O-].[Na+] [Na salt of Bz-Asp-(^13C-Ala), reference compound]	
31.52 ‰	10 min				C[C@H](NC(=O)[C@H](CS)NC(=O)c1ccccc1)[13C](=O)[O-].[Na+] [Na salt of Bz-Cys-(^13C-Ala), reference compound]	

— US7662857B2, “Diagnostic agents for pancreatic exocrine function” (Tokyo Gas Company Limited, priority 2001, dated 2010)
